Consider 1 molecule from publication PMC9862597, “Anti-Colorectal Cancer Effects of a Novel Camptothecin Derivative PCC0208037 In Vitro and In Vivo” (Pharmaceuticals, 2022).

Assay type in all cases: cell-based
In assay [1] the test system is LS180 and HCT116 cells. Nature of the assay: Western blot of DNA damage and apoptosis related proteins. The following applies: 0.01 and 0.03 μM, compared to control. The method, then: Effects of PCC0208037 on the protein expression levels were examined by Western blotting, as described previously. Briefly, 2 × 10^6 LS180 and HCT116 cells were seeded in 10-cm dishes to adhere overnight. […] At the desired time points, cells were washed twice with a cold PBS. Then, cells were lysed in the RIPA buffer for 30 min on ice. The RIPA buffer contains protease inhibitors and phosphatase inhibitors. After sonication, the samples were centrifuged at 12,000 rpm, and then the supernatants were harvested and assayed for the protein concentration. Equal amounts of protein (30 μg) were separated with a polyacrylamide gel and transferred to a PVDF membrane. The membranes were blocked for 2 h (in 5% skim milk) and then incubated with primary antibodies overnight at 4 °C: ATM p-ATM, ATR, p-ATR, Chk1, p-Chk1, Chk2, p-Chk2, P53, p-P53, Bcl2, gamma H2AX, Bax, Puma, β-actin, and GAPDH. Then, the membranes were incubated with secondary antibodies for 2 h at room temperature. All these antibodies were diluted to a 1:1000 concentration in use. The immunoblots were visualized by a BeyoECL Plus enhanced chemiluminescence system.
Figure 6 Effects of PCC0208037 on molecules related to DNA damage in CRC cells. […]
In general terms: A western blot detects proteins with antibodies after separation by electrophoresis.

The subject of assay [2] is LS180 and HCT116 cells. Nature of the assay: Cell growth curve assay. The following applies: 0.001, 0.003 µmol/L, counts over 6 days. The procedure: Cell proliferation was examined by a cell growth curve assay and a clone formation assay. Colorectal cancer cells (LS180 and HCT116 cells) were plated onto six-well plates at a density of 8000 cells per well. […] The number of cells was measured 24 h after the drug treatments. Growth curves were generated from cell counts over 6 consecutive days. For the clone formation assay, colorectal cancer cells (LS180 and HCT116 cells) were plated onto six-well plates at a density of 800 cells per well. […] Cells were then incubated with designated concentrations of PCC0208037. Fourteen days later, cells were stained with a crystal violet solution, and clones were counted.
Figure 2 Effect of PCC0208037 on cell growth. (A) Cell growth curves of LS180 cells under different treatments. (B) Cell growth curves of HCT116 cells under different treatments. The data were expressed as the mean ± SD (n = 3). * p < 0.05 as compared to the control.

A further assay concerns LS180 cells. Nature of the assay: Flow cytometry cell cycle and apoptosis assay. The following applies: LS180, 24, 48 and 72 h. The procedure:
Cell cycle analysis and an Apoptosis Assessment were performed using flow cytometry. LS180 cells were seeded in 6-well plates at a density of 1 × 10^5 cells per well for 12 h, and then different concentrations of PCC0208037 were added for 24, 48, and 72 h, respectively. Cells were stained with PI- or PI/FITC-labeled annexin, and the effects of PCC0208037 on cell cycle progression and apoptosis were analyzed by flow cytometry.
Figure 5 PCC0208037 induced G2/M phase arrest and apoptosis in LS180 cells. (A) Cells were treated with multiple concentrations of PCC0208037 for 24, 48, and 72 h and then analyzed by flow cytometry with PI staining. (B). Cells were treated with multiple concentrations of PCC0208037 for 24, 48, and 72 h and then analyzed by flow cytometry with annexin VeFITC staining. The data were expressed as the mean ± SD (n = 3). * p < 0.05 as compared to the control.
For orientation: In flow cytometry, cells or beads pass a laser one at a time.

Turning to `CCc1c2c(nc3ccc(O)cc13)-c1cc3c(c(=O)n1C2)COC(=O)[C@@]3(CC)OC(=O)Nc1nc(=O)n([C@@H]2O[C@H](C)[C@@H](O)[C@H]2O)cc1F` [PCC0208037], the “protein levels of molecules associated with DNA damage” value in the assay with LS180 and HCT116 cells [1] (8 h) is “significantly up-regulated the protein levels of γ-H2AX, p-ATM, p-Chk1, p-Chk2, p-P53, and P53”. Moreover, the “protein levels of molecules associated with apoptosis” value in the assay with LS180 and HCT116 cells [1] (24 h) was “significantly up-regulated the protein levels of BAX and PUMA and down-regulated the protein level of Bcl-2”. In the assay on LS180 and HCT116 cells [2], the “cell growth ability (cell growth curve)” value was “decreased the cell growth ability in a dose-dependent manner”. Besides, in the assay with LS180 cells (FITC annexin V staining), the “percentage of apoptotic cells” value is reported as “significantly increased the percentage of apoptotic cells”. Also, in the assay with LS180 cells (PI staining), the “ratio of cells in the G2/M phase” value is “significantly increased the ratio of the cells in the G2/M phase”.
